Results published in patent US11679114B2, “Progestogen-only oral contraception” (Navad Life Sciences Pte, priority 2021, dated 2023).
Several values for one entry are separate records, joined by “and”; a condition that tells them apart may be missing. Equal values may be shown once.

Assays:
Type in all cases: in vivo, human
[1] = tested on: healthy, cyclic women; assay: Serum FSH, LH, estradiol (E2) and progesterone (P) concentrations during treatment
Description: (§1) The tablets prepared in Example 1 were tested in a single-center, open-label, adaptive design study to evaluate the influence on hormonal and ovarian function and vaginal bleeding pattern of different higher dosages of LNG administered once daily for 28 days over two consecutive treatment cycles in healthy, cyclic women.
(§2) Subjects started study medication intake on the first day of menstrual bleeding after the pre-treatment cycle. One tablet was taken orally, around the same time every morning, during 56 consecutive days. Study visits were planned every three (±1) days from treatment day 3 (±1) until 27 (±1) and from day 31 (±1) until day 55 (±1). At each visit the diameter of the largest follicle-like structure (FLS) and serum follicle-stimulating hormone (FSH), luteinizing hormone (LH), estradiol (E2) and P concentrations were measured.
(§3) If ovulation was observed during treatment, the subsequent luteal phase was evaluated using the Landgren criterion, i.e. the luteal phase was considered adequate when P concentrations were >16 nmol/L during at least 5 days (Landgren et al., “Hormonal effects of the 300 μg norethisterone (NET) minipill. 1. Daily steroid levels in 43 subjects during a pretreatment cycle and during the second month of NET administration,” Contraception 1980; 21: pp. 87-113). TVUS measurements of the diameter of the largest FLS (mean of two directions) were performed using a Voluson E8 Expert device (GE Medical Systems). Serum FSH, LH, E2, P and SHBG concentrations were determined by validated chemiluminescent microparticle immunoassays (Abbott, Longford, Ireland). All pharmacodynamic parameters were evaluated descriptively.

[2] = tested on: healthy, cyclic women; assay: Ovarian activity according the Hoogland-Skouby score during two 28-day treatment periods
Description: as §1
The first tested dosage was 0.095 mg per day. The choice of subsequent dosages depended on the occurrence of ovulations in the previous treatment groups. The study was stopped when the lowest dosage completely inhibiting ovulation was identified, and one higher and one lower dosage were investigated.
as §2
The primary outcome parameter was ovarian activity according the Hoogland-Skouby score (Table 1), determined for each 28-day treatment period (Hoogland H J, Skouby S O. “Ultrasound evaluation of ovarian activity under oral contraceptives,” Contraception 1993; 47: pp. 583-90).
as §3

[3] = tested on: healthy, cyclic women; assay: Vaginal bleeding pattern (daily record); details: excluding the first 7 treatment days
Description: as §1
Throughout the study, subjects kept a daily record of vaginal bleeding. During the treatment period, they also documented the time of study medication intake.

[4] = tested on: healthy, cyclic women; assay: Serum SHBG concentrations
Description: Serum SHBG concentrations were determined after ovulation in the pre-treatment cycle, on treatment day 55 (±1) and at the end-of-study examination. Multiple-dose PK parameters were investigated in approximately 15 subjects per dose group, 5 of them having a BMI≥30 kg/m^2. Blood samples for LNG determination were taken on treatment day 55 (±1) pre-dose and 0.5, 1, 2, 3, 4, 6 and 24 hours after dosing.
as §3

[5] = LNG 0.095 mg per day, BMI < 30 kg/m^2, entire treatment period
[6] = LNG 0.095 mg per day, BMI ≥ 30 kg/m^2, entire treatment period
[7] = LNG 0.095 mg per day, entire treatment period
[8] = LNG 0.095 mg per day, treatment period 1
[9] = LNG 0.095 mg per day, treatment period 2
[10] = LNG 0.115 mg per day, BMI < 30 kg/m^2, entire treatment period
[11] = LNG 0.115 mg per day, BMI ≥ 30 kg/m^2, entire treatment period
[12] = LNG 0.115 mg per day, entire treatment period
[13] = LNG 0.115 mg per day, treatment period 1
[14] = LNG 0.115 mg per day, treatment period 2
[15] = LNG 0.135 mg per day, BMI < 30 kg/m^2, entire treatment period
[16] = LNG 0.135 mg per day, BMI ≥ 30 kg/m^2, entire treatment period
[17] = LNG 0.135 mg per day, entire treatment period
[18] = LNG 0.135 mg per day, treatment period 1
[19] = LNG 0.135 mg per day, treatment period 2
[20] = LNG 0.095 mg per day, end of study (on average 22 days after last treatment)
[21] = LNG 0.095 mg per day, treatment day 55 ± 1
[22] = LNG 0.115 mg per day, end of study (on average 22 days after last treatment)
[23] = LNG 0.115 mg per day, treatment day 55 ± 1
[24] = LNG 0.135 mg per day, end of study (on average 22 days after last treatment)
[25] = LNG 0.135 mg per day, treatment day 55 ± 1

C#C[C@]1(O)CC[C@H]2[C@@H]3CCC4=CC(=O)CC[C@@H]4[C@H]3CC[C@@]21CC (racemic) [LNG, levonorgestrel]
LH peak in one of the ovulating subjects ([1]; LNG 0.095 mg per day): 68.0 IU/L
Maximum E2 concentration, Mean ± SD [1, 5]: 705 ± 537 pmol/L
Mean E2 concentration, Mean ± SD [1, 5]: 253 ± 140 pmol/L
Maximum E2 concentration, Mean ± SD [1, 6]: 484 ± 277 pmol/L
Mean E2 concentration, Mean ± SD [1, 6]: 190 ± 72 pmol/L
Maximum E2 concentration, Mean ± SD [1, 7]: 660 ± 500 pmol/L
Maximum E2 concentration, Median [1, 7]: 580 pmol/L
Mean E2 concentration, Mean ± SD [1, 7]: 241 pmol/L and 241 ± 130 pmol/L
Mean E2 concentration, Median [1, 7]: 204 pmol/L
Maximum E2 concentration, Mean ± SD [1, 8]: 595 ± 495 pmol/L
Maximum E2 concentration, Median [1, 8]: 362 pmol/L
Mean E2 concentration, Mean ± SD [1, 8]: 289 ± 195 pmol/L
Mean E2 concentration, Median [1, 8]: 231 pmol/L
Maximum E2 concentration, Mean ± SD [1, 9]: 384 ± 304 pmol/L
Maximum E2 concentration, Median [1, 9]: 224 pmol/L
Mean E2 concentration, Mean ± SD [1, 9]: 186 ± 97 pmol/L
Mean E2 concentration, Median [1, 9]: 144 pmol/L
Maximum E2 concentration, Mean ± SD [1, 10]: 611 ± 623 pmol/L
Mean E2 concentration, Mean ± SD [1, 10]: 213 ± 160 pmol/L
Maximum E2 concentration, Mean ± SD [1, 11]: 607 ± 116 pmol/L
Mean E2 concentration, Mean ± SD [1, 11]: 242 ± 66 pmol/L
Maximum E2 concentration, Mean ± SD [1, 12]: 610 ± 559 pmol/L
Maximum E2 concentration, Median [1, 12]: 511 pmol/L
Mean E2 concentration, Mean ± SD [1, 12]: 219 pmol/L and 219 ± 146 pmol/L
Mean E2 concentration, Median [1, 12]: 186 pmol/L
Maximum E2 concentration, Mean ± SD [1, 13]: 563 ± 551 pmol/L
Maximum E2 concentration, Median [1, 13]: 481 pmol/L
Mean E2 concentration, Mean ± SD [1, 13]: 269 ± 217 pmol/L
Mean E2 concentration, Median [1, 13]: 244 pmol/L
Maximum E2 concentration, Mean ± SD [1, 14]: 367 ± 278 pmol/L
Maximum E2 concentration, Median [1, 14]: 215 pmol/L
Mean E2 concentration, Mean ± SD [1, 14]: 170 ± 88 pmol/L
Mean E2 concentration, Median [1, 14]: 146 pmol/L
Maximum E2 concentration, Mean ± SD [1, 15]: 415 ± 244 pmol/L
Mean E2 concentration, Mean ± SD [1, 15]: 178 ± 72 pmol/L
Maximum E2 concentration, Mean ± SD [1, 16]: 421 ± 332 pmol/L
Mean E2 concentration, Mean ± SD [1, 16]: 190 ± 87 pmol/L
Maximum E2 concentration, Mean ± SD [1, 17]: 416 ± 256 pmol/L
Maximum E2 concentration, Median [1, 17]: 279 pmol/L
Mean E2 concentration, Mean ± SD [1, 17]: 180 pmol/L and 180 ± 73 pmol/L
Mean E2 concentration, Median [1, 17]: 144 pmol/L
Maximum E2 concentration, Mean ± SD [1, 18]: 369 ± 245 pmol/L
Maximum E2 concentration, Median [1, 18]: 239 pmol/L
Mean E2 concentration, Mean ± SD [1, 18]: 198 ± 100 pmol/L
Mean E2 concentration, Median [1, 18]: 156 pmol/L
Maximum E2 concentration, Mean ± SD [1, 19]: 302 ± 184 pmol/L
Maximum E2 concentration, Median [1, 19]: 242 pmol/L
Mean E2 concentration, Mean ± SD [1, 19]: 162 ± 62 pmol/L
Mean E2 concentration, Median [1, 19]: 148 pmol/L
Subjects with mean E2 concentrations ≥110 pmol/L (30 pg/mL) ([1]; all dosages (0.095, 0.115, 0.135 mg per day)): 80-90%
Mean E2 concentrations in all subjects ([1]; all dosages, except in one subject in the 0.115 mg group, 73.4 pmol/L = 20 pg/mL): > 73.4 pmol/L
Individual P concentrations during treatment ([1]; all groups, except 2 ovulating subjects (0.095 mg), the subject with abnormal ovulation (0.135 mg) and one other subject): below 5 nmol/L
Individual LH concentrations ([1]; all groups, except for an LH peak in one ovulating subject in the 0.095 mg group): below 12.1 IU/L
Mean E2 concentrations in all LNG treatment groups ([1]; all treatment groups, 110 pmol/L (30 pg/mL) = lower limit assumed not to lead to accelerated bone loss): above 110 pmol/L
Single P concentration in another subject ([1]; first treatment visit, probably a residue from the pre-treatment cycle, dose group not stated): 5.85 nmol/L
Subjects with Hoogland-Skouby score 1 (No activity), % [2, 8]: 3.7%
Subjects with Hoogland-Skouby score 2 (Potential activity), % [2, 8]: 29.6%
Subjects with Hoogland-Skouby score 3 (Non-active FLS), % [2, 8]: 3.7%
Subjects with Hoogland-Skouby score 4 (Active FLS), % [2, 8]: 55.6%
Subjects with Hoogland-Skouby score 5 (LUF), % [2, 8]: 0%
Subjects with Hoogland-Skouby score 6 ('Ovulation'), % [2, 8]: 7.4%
Subjects with Hoogland-Skouby score 1 (No activity), % [2, 9]: 0%
Subjects with Hoogland-Skouby score 2 (Potential activity), % [2, 9]: 24.0%
Subjects with Hoogland-Skouby score 3 (Non-active FLS), % [2, 9]: 0%
Subjects with Hoogland-Skouby score 4 (Active FLS), % [2, 9]: 76.0%
Subjects with Hoogland-Skouby score 5 (LUF), % [2, 9]: 0%
Subjects with Hoogland-Skouby score 6 ('Ovulation'), % [2, 9]: 0%
Subjects with Hoogland-Skouby score 1 (No activity), % [2, 13]: 3.7%
Subjects with Hoogland-Skouby score 2 (Potential activity), % [2, 13]: 22.2%
Subjects with Hoogland-Skouby score 3 (Non-active FLS), % [2, 13]: 3.7%
Subjects with Hoogland-Skouby score 4 (Active FLS), % [2, 13]: 70.4%
Subjects with Hoogland-Skouby score 5 (LUF), % [2, 13]: 0%
Subjects with Hoogland-Skouby score 6 ('Ovulation'), % [2, 13]: 0%
Subjects with Hoogland-Skouby score 1 (No activity), % [2, 14]: 3.85%
Subjects with Hoogland-Skouby score 2 (Potential activity), % [2, 14]: 23.1%
Subjects with Hoogland-Skouby score 3 (Non-active FLS), % [2, 14]: 7.7%
Subjects with Hoogland-Skouby score 4 (Active FLS), % [2, 14]: 65.4%
Subjects with Hoogland-Skouby score 5 (LUF), % [2, 14]: 0%
Subjects with Hoogland-Skouby score 6 ('Ovulation'), % [2, 14]: 0%
Subjects with Hoogland-Skouby score 1 (No activity), % [2, 18]: 4.0%
Subjects with Hoogland-Skouby score 2 (Potential activity), % [2, 18]: 32.0%
Subjects with Hoogland-Skouby score 3 (Non-active FLS), % [2, 18]: 0%
Subjects with Hoogland-Skouby score 4 (Active FLS), % [2, 18]: 64.0%
Subjects with Hoogland-Skouby score 5 (LUF), % [2, 18]: 0%
Subjects with Hoogland-Skouby score 6 ('Ovulation'), % [2, 18]: 0%
Subjects with Hoogland-Skouby score 1 (No activity), % [2, 19]: 4.0%
Subjects with Hoogland-Skouby score 2 (Potential activity), % [2, 19]: 24.0%
Subjects with Hoogland-Skouby score 3 (Non-active FLS), % [2, 19]: 4.0%
Subjects with Hoogland-Skouby score 4 (Active FLS), % [2, 19]: 68.0%
Subjects with Hoogland-Skouby score 5 (LUF), % [2, 19]: 0%
Subjects with Hoogland-Skouby score 6 ('Ovulation'), % [2, 19]: 0%
Lowest dosage at which no ovulation occurred (lowest effective dosage) ([2]; once daily oral, two 28-day treatment periods, 0.095, 0.115 and 0.135 mg tested): 0.115 mg per day
Number of days with bleeding or spotting during treatment, mean (±SD) ([3]; LNG 0.095 mg per day): 12.3 (±8.6) days
Number of days with bleeding or spotting during treatment, median ([3]; LNG 0.095 mg per day): 11.5 days
Number of days with bleeding or spotting during treatment, mean (±SD) ([3]; LNG 0.115 mg per day): 14.5 (±9.4) days
Number of days with bleeding or spotting during treatment, median ([3]; LNG 0.115 mg per day): 14.5 days
Number of days with bleeding or spotting during treatment, mean (±SD) ([3]; LNG 0.135 mg per day): 16.0 (±11.5) days
Number of days with bleeding or spotting during treatment, median ([3]; LNG 0.135 mg per day): 13.0 days
SHBG, Mean ± SD [4, 20]: 49.9 ± 17.4 nmol/L
SHBG, Median [4, 20]: 47.7 nmol/L
SHBG, Mean ± SD [4, 21]: 27.7 ± 10.6 nmol/L
SHBG, Median [4, 21]: 25.5 nmol/L
SHBG, Mean ± SD [4, 22]: 48.1 ± 20.1 nmol/L
SHBG, Median [4, 22]: 46.7 nmol/L
SHBG, Mean ± SD [4, 23]: 23.9 ± 12.1 nmol/L
SHBG, Median [4, 23]: 18.9 nmol/L
SHBG, Mean ± SD [4, 24]: 58.6 ± 28.5 nmol/L
SHBG, Median [4, 24]: 47.8 nmol/L
SHBG, Mean ± SD [4, 25]: 24.0 ± 9.5 nmol/L
SHBG, Median [4, 25]: 23.7 nmol/L
Suppression of SHBG concentrations ([4]; all treatment groups, end of treatment period 2): approximately 60%
